Test results reported in patent US9187429B2, “Phenyl-tetrahydroisoquinoline derivatives” (Hoffmann-La Roche Inc., priority 2012, dated 2015).

Assays:
CYP11B2 [1] = molecular target: T1, CYP11B2 (Homo sapiens (Human), UniProt P19099); test: G-402 cellular enzyme assay, human CYP11B2 (aldosterone release); type: cell-based; details: G-402 cells expressing human CYP11B2, 1 μM Deoxycorticosterone
Outline: (§1)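 G-402 cells stably transfected with human CYP11B2 or CYP11B1, dosed with inhibitor and 1 μM deoxycorticosterone (CYP11B2) or 1 μM deoxycortisol (CYP11B1). Aldosterone or cortisol in supernatant quantified by HTRF; EC50 from 4-parameter MMF fit of steroid level versus inhibitor concentration.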

human CYP11B1 = human CYP11B1 (Homo sapiens (Human), UniProt P15538); test: G-402 cellular enzyme assay, human CYP11B1 (cortisol release); type: cell-based; details: G-402 cells expressing human CYP11B1, 1 μM Deoxycortisol
Outline: as §1

[2] = rat CKD model; FAD286 4 weeks of treatment, spironolactone 4 and 8 weeks; cited from earlier work
CYP11B2 [3] = molecular target: T1, CYP11B2; details: patients with primary aldosteronism, oral; cited from earlier work

T1 sequence (P19099 25-503): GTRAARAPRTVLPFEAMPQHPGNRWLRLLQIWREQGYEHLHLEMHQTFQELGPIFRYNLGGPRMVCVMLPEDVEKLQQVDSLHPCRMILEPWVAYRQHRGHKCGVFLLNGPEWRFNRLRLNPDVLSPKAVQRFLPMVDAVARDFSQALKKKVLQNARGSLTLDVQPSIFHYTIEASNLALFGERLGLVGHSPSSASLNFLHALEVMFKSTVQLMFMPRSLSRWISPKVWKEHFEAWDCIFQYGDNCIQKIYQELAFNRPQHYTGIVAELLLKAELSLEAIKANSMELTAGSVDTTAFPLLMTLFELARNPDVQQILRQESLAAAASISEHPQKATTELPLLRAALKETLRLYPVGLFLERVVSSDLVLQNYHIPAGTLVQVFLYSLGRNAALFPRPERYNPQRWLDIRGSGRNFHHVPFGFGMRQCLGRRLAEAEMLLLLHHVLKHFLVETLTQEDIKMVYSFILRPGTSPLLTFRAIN
human CYP11B1, sequence (P15538 25-503): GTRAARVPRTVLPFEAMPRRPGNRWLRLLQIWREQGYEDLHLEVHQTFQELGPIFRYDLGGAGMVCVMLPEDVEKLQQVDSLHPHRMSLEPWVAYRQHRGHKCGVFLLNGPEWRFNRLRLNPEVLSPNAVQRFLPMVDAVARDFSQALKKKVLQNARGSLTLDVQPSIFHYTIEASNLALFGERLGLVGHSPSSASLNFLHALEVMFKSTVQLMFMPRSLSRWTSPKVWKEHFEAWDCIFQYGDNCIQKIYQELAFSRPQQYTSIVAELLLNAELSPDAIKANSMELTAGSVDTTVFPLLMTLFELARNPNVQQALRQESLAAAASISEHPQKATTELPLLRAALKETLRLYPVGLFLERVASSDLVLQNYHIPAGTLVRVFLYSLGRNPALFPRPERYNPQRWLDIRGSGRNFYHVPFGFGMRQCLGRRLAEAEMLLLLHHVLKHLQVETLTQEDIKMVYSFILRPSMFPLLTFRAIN

| SMILES | EC50 (CYP11B2 [1]) | EC50 (human CYP11B1) | other results |
| --- | --- | --- | --- |
| N[C@@H]1CCCc2c(-c3ccc(C(F)(F)F)cc3F)cncc21 [Example 74, (+)-(R)-4-(2-Fluoro-4-(trifluoromethyl)phenyl)-5,6,7,8-tetrahydroisoquinolin-8-amine] | 32.8 nM | 1220 nM | – |
| CC(=O)N[C@@H]1CCCc2c(-c3ccc(C(F)(F)F)cc3F)cncc21 [Example 75, (+)-(R)—N-(4-(2-Fluoro-4-(trifluoromethyl)phenyl)-5,6,7,8-tetrahydroisoquinolin-8-yl)acetamide] | 51.2 nM | 3540 nM | – |
| CS(=O)(=O)N[C@@H]1CCCc2c(-c3ccc(C(F)(F)F)cc3F)cncc21 [Example 76, (+)-(R)—N-(4-(2-Fluoro-4-(trifluoromethyl)phenyl)-5,6,7,8-tetrahydroisoquinolin-8-yl)methanesulfonamide] | 118 nM | 23200 nM | – |
| CC(=O)N[C@@H]1CCCc2c(-c3ccc(C(F)(F)F)cc3)cncc21 [Example 77, (+)-(R)—N-(4-(4-(Trifluoromethyl)phenyl)-5,6,7,8-tetrahydroisoquinolin-8-yl)acetamide] | 58.8 nM | 2240 nM | – |
| CC(=O)N[C@@H]1CCCc2c(-c3ccc(C#N)cc3)cncc21 [Example 78, (+)-(R)—N-(4-(4-Cyanophenyl)-5,6,7,8-tetrahydroisoquinolin-8-yl)acetamide] | 23.3 nM | 276 nM | – |
| CC(=O)N[C@@H]1CCCc2c(-c3ccc(C(F)(F)F)c(F)c3)cncc21 [Example 79, (+)-(R)—N-(4-(3-Fluoro-4-(trifluoromethyl)phenyl)-5,6,7,8-tetrahydroisoquinolin-8-yl)acetamide] | 35.6 nM | 1780 nM | – |
| CCC(=O)N[C@@H]1CCCc2c(-c3ccc(C(F)(F)F)cc3C3CC3)cncc21 [Example 107, (R)—N-(4-(2-Cyclopropyl-4-(trifluoromethyl)phenyl)-5,6,7,8-tetrahydroisoquinolin-8-yl)propionamide] | 964 nM | 7830 nM | – |
| N#Cc1ccc(C2CCCc3cncn32)cc1 (stereo not shown) [FAD286] | – | – | plasma aldosterone [2]: reduced |
| N#Cc1ccc([C@H]2CCc3cncn32)c(F)c1 [LCI699] | – | – | blood pressure (CYP11B2 [3]): mildly decreased; circulating aldosterone levels (CYP11B2 [3]): significantly lower; hypokalemia (CYP11B2 [3]): corrected |
| CC(=O)S[C@@H]1CC2=CC(=O)CC[C@]2(C)[C@H]2CC[C@@]3(C)[C@@H](CC[C@@]34CCC(=O)O4)[C@H]12 [spironolactone] | – | – | plasma aldosterone [2]: increased |
